The source made the active and inactive calls.
Experiments:
[1] = target: ADP-ribosylation factor GTPase-activating protein 1 (Rattus norvegicus, UniProt Q62848); test: Fluorescence polarization-based biochemical high throughput dose response screening assay to identify inhibitors of ADP-ribosylation factor GTPase activating protein 1 (ARFGAP1).; format: functional
[2] = target: Arf-GAP with SH3 domain, ANK repeat and PH domain-containing protein 1 (Homo sapiens, UniProt Q9ULH1); format: functional;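 further: biochemical fluorescence polarization dose–response screen measuring inhibition of ASAP1; ASAP1 GAP domain stimulating GTP hydrolysis by truncated human ARF1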
[3] = target: T1, Corticotropin-releasing factor receptor 2/Corticotropin-releasing factor-binding protein (Homo sapiens, UniProt P24387+Q13324); test: activators of CRF receptor 2 with binding protein – uHTS hits, confirmation (AID 602473); format: functional; settings: read-out: EC50_Mean
T1 sequence (Q13324 whole entry): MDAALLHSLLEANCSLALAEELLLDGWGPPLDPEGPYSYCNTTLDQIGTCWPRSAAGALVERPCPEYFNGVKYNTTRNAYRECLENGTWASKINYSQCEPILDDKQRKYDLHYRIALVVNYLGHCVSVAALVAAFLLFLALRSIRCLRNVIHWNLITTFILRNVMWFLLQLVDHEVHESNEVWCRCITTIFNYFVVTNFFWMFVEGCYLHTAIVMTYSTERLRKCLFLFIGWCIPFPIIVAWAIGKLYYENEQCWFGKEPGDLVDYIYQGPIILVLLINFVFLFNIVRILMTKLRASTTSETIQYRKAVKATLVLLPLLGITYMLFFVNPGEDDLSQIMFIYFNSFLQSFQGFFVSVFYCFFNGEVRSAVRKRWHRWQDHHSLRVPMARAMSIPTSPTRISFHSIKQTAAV
T1 sequence (P24387 whole entry): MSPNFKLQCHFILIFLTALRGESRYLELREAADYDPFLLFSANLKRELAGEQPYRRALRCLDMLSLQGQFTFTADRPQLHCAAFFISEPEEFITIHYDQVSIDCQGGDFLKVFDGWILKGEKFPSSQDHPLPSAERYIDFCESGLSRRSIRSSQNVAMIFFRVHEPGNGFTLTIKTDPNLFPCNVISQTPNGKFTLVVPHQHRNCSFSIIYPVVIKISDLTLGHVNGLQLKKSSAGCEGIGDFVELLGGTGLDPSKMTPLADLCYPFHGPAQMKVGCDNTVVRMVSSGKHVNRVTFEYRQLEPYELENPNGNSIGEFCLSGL

[4] = viability loss in HEK293T cells – cell-based, cherry-picks, cytotoxicity control for HIV Vif inhibitor project, dose response (AID 652208); format: functional
Kallikrein-7 = Kallikrein-7 (Homo sapiens, UniProt P49862); test: Fluorescence Intensity-based biochemical primary high throughput dose response assay to identify activators of kallikrein-7 (K7) zymogen.
[5] = optical artefact potency, substrate without enzyme – biochemical, fluorescence intensity, triplicate, artefact control for kallikrein-7 zymogen activator project, dose response (AID 720493)
[6] = T. cruzi growth inhibition in host cells, dose response, cell-based, plate reader, dry powder, set 2 (AID 652275); format: functional
[7] = blockers of HIV-1 envelope-mediated cell-cell fusion – cherry-pick, dose response (AID 652057); format: functional, cell-based
[8] = viability loss in CEM21 cells – cell-based, CellTiter-Glo luminescence, cherry-picked, cytotoxicity control for viral fusion inhibitor project, dose response (AID 652042); format: functional;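 further: potency for signal decrease meaning cytotoxicity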
[9] = blockers of HIV-1 ZM109 envelope-driven cell-cell fusion – HeLa effector, CEM target cells, luciferase, cherry-pick, dose response (AID 652058); format: functional, cell-based;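 further: luciferase signal from HIV-1 Env mediated cell-cell fusion of effector and target cells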
[10] = off-target signal loss in HeLa-CEM21 co-culture – HeLa F-luc CTL cells, cherry-picked, counter-screen for HIV-1 Env fusion inhibitor project, dose response (AID 652040); format: functional, cell-based;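 further: potency for signal decrease marking cytotoxic or nonspecific inhibition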
[11] = HIV-1 AD8 envelope cell-cell fusion blockers – cherry-pick, dose response (AID 652062); format: functional, cell-based;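 further: luciferase signal from cell-cell fusion driven by HIV-1 clade B AD8 Env; potency is for inhibitors of fusion seen as a drop in luminescence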
[12] = viability loss in CEM21 cells – cell-based, plate reader, dry powder, cytotoxicity control, dose response (AID 687026); format: functional
[13] = target: Endoplasmic reticulum aminopeptidase 1 (Homo sapiens, UniProt Q9NZ08); test: inhibition of human ERAP1 enzyme activity – biochemical, cherry-pick, set 2, plate reader, dose response (AID 743314)
[14] = target: T2, Beta-2 adrenergic receptor (Homo sapiens, UniProt P07550); test: ADRB2 activation measured by internalization – cell-based, FAP fluorogen, flow cytometry, cherry pick 1, dose response (AID 588763); format: functional
[15] = target: T2, Beta-2 adrenergic receptor; test: Dose response for HTS for Beta-2AR agonists via FAP method from Powderset3.; format: functional
[16] = target: Fructose-bisphosphate aldolase (Mycobacterium tuberculosis, UniProt P9WQA3); test: Fluorescence-based biochemical high throughput dose response assay for inhibitors of the fructose-bisphosphate aldolase (FBA) of M. tuberculosis.; format: functional
[17] = target: Botulinum neurotoxin type F (Clostridium botulinum, UniProt P30996); test: High-throughput multiplex microsphere dose response for inhibitors of toxin protease, specifically Botulinum neurotoxin light chain F protease, compounds from Cherry Pick 02.; format: functional; settings: read-out: EC50_MICROM
Protein skinhead-1 = target: T3, Protein skinhead-1 (Caenorhabditis elegans, UniProt P34707); format: functional
T3 sequence (P34707 whole entry): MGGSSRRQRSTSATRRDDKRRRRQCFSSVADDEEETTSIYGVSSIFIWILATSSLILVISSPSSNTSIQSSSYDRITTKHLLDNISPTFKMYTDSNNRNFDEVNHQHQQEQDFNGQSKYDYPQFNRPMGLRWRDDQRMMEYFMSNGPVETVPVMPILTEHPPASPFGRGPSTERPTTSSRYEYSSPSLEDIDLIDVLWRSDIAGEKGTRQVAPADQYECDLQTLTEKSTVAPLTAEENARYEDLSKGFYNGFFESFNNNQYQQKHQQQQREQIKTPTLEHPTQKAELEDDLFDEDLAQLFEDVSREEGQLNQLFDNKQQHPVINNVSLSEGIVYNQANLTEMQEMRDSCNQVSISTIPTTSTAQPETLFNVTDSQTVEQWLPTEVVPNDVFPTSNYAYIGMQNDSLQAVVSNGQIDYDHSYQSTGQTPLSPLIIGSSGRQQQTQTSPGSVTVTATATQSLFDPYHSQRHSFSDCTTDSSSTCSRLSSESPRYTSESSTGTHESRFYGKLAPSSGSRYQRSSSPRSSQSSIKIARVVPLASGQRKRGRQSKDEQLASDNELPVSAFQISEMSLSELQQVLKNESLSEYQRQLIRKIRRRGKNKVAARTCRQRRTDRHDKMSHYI

Vero = test: viability loss in Vero cells – cell-based, plate reader, cherry-pick samples, cytotoxicity control, dose response (AID 687020); format: functional; settings: Chlorocebus sabaeus
Aminopeptidase N = target: T4, Aminopeptidase N (Plasmodium falciparum FcB1/Columbia, UniProt O96935); test: malaria alanyl aminopeptidase activity blockers – biochemical, fluorogenic H-Leu-NHMec substrate, 1536-well (AID 1445); design: species or system Plasmodium falciparum 3D7, 3D7
T4 sequence (O96935 whole entry): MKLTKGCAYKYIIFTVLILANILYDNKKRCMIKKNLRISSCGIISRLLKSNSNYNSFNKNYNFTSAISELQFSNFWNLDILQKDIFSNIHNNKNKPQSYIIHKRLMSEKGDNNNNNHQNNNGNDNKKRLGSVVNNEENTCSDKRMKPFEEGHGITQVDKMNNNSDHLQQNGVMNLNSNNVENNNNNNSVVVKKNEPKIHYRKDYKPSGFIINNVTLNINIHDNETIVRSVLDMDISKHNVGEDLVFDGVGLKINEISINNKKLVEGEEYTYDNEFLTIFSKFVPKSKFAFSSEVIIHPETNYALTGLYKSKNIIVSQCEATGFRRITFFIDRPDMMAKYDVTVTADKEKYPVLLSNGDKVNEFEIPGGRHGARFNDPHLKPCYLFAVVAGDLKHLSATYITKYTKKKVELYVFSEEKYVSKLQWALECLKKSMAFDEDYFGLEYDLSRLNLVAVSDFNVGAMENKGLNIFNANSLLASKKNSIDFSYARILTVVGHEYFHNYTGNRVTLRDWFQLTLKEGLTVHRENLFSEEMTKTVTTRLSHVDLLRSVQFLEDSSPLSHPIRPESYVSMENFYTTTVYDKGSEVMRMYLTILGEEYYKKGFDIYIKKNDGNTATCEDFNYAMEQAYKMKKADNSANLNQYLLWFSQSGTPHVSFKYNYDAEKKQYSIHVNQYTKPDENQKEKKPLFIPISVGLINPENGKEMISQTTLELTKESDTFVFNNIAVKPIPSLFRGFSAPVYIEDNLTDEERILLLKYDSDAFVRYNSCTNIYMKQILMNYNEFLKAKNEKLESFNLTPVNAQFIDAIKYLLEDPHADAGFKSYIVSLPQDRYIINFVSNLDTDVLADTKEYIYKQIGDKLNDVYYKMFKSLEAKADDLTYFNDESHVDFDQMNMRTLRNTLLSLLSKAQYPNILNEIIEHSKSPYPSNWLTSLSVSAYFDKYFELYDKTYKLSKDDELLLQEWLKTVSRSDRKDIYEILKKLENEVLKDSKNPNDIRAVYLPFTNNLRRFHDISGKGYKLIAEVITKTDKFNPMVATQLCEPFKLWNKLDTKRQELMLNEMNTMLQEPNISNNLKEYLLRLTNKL

[18] = target: Long-chain-fatty-acid--AMP ligase FadD28 (Mycobacterium tuberculosis, UniProt P9WQ59); test: Fluorescence polarization aasay to screen for inhibitors that compete for the binding of FadD28 to a bisubstrate Measured in Biochemical System Using Plate Reader - 2147-01_Inhibitor_Dose_CherryPick_Activity.; format: functional, Mycobacterium tuberculosis H37Rv
Chain of Long-chain-fatty-acid--AMP ligase FadD28 (P9WQ59 whole entry): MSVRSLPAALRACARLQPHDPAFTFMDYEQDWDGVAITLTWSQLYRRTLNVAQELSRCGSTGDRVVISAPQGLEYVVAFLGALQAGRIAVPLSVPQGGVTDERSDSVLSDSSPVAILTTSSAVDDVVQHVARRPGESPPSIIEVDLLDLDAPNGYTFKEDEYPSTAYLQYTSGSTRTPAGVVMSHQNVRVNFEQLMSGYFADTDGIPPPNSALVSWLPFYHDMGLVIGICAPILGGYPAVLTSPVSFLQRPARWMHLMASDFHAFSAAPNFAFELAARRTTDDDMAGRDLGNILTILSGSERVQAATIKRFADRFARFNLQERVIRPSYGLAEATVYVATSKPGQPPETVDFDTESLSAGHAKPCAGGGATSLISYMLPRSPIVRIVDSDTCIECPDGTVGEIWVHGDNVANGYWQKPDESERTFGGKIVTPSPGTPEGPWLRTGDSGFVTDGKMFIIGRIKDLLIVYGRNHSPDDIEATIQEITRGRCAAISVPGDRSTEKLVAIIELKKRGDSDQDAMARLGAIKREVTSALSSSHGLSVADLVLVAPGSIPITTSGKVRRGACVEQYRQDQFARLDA

T2 sequence (P07550 whole entry): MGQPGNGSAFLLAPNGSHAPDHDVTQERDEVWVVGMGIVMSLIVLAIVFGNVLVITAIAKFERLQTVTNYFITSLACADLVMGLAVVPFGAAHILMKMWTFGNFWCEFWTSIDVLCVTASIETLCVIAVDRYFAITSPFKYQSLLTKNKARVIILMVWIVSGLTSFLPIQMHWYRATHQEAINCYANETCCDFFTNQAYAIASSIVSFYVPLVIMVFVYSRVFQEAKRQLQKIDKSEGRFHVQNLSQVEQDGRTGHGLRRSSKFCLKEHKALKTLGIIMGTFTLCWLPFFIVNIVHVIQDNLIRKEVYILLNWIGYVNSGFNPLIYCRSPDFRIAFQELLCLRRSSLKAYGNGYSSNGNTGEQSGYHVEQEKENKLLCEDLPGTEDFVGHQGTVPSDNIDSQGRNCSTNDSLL
Chain of ADP-ribosylation factor GTPase-activating protein 1 (Q62848 whole entry, the tested form may be a part): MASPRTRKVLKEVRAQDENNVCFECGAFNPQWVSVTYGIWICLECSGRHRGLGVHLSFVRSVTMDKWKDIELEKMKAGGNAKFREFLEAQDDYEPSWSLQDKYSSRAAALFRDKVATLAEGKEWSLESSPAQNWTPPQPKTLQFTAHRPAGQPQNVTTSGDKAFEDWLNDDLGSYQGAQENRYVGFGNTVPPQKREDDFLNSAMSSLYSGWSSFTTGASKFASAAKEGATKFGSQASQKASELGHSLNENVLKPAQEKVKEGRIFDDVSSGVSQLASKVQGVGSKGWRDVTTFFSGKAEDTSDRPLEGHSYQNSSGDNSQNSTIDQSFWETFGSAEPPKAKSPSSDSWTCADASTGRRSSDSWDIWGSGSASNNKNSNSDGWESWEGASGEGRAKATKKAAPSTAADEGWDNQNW
Chain of Arf-GAP with SH3 domain, ANK repeat and PH domain-containing protein 1 (Q9ULH1 whole entry, the tested form may be a part): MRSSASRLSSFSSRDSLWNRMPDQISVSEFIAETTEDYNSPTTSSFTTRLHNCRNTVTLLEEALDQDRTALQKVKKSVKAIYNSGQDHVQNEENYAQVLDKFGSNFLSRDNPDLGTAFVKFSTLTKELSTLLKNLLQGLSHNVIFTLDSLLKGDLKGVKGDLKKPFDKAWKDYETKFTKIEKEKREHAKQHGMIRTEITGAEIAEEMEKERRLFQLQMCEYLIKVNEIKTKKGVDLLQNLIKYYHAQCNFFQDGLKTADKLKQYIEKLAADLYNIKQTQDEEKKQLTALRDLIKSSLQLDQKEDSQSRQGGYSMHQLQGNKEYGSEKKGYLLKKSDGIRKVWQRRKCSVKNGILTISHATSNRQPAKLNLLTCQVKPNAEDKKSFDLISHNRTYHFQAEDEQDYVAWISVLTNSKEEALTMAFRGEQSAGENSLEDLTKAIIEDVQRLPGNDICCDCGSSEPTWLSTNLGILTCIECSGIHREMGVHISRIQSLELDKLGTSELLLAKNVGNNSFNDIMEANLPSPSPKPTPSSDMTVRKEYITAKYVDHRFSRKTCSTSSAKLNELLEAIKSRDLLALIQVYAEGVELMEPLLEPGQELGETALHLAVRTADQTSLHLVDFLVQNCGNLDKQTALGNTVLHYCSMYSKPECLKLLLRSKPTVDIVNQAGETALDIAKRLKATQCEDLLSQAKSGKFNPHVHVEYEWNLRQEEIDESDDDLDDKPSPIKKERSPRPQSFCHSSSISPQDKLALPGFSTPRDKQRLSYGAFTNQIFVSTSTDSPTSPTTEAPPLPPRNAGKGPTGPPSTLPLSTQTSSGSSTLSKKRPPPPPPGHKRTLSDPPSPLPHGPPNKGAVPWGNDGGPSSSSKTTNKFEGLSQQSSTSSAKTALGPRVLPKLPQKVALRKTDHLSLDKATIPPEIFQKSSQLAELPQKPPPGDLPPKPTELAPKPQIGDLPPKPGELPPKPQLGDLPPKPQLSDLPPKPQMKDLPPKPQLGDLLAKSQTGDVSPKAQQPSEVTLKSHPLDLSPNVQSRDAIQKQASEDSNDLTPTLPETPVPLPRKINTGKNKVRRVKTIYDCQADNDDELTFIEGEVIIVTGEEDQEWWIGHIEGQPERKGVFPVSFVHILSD
Chain of Endoplasmic reticulum aminopeptidase 1 (Q9NZ08 whole entry): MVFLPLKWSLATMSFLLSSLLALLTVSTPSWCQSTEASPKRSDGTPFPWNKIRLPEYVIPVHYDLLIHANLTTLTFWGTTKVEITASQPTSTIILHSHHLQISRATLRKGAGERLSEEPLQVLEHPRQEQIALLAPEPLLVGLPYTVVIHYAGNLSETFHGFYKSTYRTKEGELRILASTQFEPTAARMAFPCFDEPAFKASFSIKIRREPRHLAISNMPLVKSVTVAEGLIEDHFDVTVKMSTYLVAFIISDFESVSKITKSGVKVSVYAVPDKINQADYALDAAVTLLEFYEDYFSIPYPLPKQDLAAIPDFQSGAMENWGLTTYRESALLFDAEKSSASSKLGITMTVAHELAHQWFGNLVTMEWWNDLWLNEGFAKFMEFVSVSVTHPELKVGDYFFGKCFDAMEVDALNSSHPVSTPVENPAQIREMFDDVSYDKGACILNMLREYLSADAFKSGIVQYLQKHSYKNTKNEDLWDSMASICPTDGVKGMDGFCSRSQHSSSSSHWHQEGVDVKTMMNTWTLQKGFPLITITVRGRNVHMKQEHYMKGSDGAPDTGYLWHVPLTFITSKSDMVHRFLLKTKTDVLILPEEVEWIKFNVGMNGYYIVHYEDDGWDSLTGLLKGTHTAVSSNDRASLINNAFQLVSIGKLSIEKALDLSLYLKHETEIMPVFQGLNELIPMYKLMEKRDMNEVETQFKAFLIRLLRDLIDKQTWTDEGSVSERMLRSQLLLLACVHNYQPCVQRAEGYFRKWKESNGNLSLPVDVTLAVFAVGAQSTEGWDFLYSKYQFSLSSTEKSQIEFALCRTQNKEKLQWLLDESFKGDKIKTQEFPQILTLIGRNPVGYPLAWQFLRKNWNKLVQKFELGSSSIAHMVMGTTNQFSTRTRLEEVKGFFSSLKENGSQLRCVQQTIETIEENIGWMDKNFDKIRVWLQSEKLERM
Chain of Botulinum neurotoxin type F (P30996 1-436 limits assumed): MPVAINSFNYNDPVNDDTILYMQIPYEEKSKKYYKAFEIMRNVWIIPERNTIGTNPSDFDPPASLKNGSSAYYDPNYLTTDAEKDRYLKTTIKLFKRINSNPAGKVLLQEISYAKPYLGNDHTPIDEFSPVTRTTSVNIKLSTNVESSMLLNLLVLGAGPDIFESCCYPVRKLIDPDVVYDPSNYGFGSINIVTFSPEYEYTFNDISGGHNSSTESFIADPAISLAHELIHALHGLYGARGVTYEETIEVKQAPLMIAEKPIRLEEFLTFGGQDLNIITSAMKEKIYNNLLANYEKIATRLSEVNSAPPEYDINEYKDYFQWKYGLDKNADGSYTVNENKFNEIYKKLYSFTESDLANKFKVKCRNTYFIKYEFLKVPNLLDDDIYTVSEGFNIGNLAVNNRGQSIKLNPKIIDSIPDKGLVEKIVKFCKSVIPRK
Chain of Fructose-bisphosphate aldolase (P9WQA3 whole entry): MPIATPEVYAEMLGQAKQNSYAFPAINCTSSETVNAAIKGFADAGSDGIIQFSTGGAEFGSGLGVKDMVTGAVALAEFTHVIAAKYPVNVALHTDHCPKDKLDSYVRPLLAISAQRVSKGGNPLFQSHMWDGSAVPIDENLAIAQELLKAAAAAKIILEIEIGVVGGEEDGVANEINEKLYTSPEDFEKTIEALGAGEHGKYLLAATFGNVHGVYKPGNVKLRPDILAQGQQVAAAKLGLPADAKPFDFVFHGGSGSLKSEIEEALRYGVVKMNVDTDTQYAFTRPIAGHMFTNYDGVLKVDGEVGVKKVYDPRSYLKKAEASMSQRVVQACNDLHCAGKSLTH
Chain of Kallikrein-7 (P49862 whole entry): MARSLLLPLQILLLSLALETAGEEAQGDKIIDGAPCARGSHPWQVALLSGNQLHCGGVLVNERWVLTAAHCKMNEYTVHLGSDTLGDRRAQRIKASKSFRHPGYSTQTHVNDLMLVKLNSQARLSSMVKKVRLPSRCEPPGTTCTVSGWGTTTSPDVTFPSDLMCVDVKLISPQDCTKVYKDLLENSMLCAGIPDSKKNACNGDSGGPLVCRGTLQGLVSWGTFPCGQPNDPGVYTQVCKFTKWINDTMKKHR

For COc1ccccc1C=NNC(=O)NN=Cc1ccccc1OC, the IC50 [1] was 25.6 µM (inactive) and the IC50 [2] was 23.2 µM (inactive).
For O=C(NCc1ccccc1C(F)(F)F)c1cccc2c1C(=O)c1ccc(N3CCCCC3)cc1S2(=O)=O, the EC50 [3] was 5.37 µM (active) and the AC50 [4] was > 52 µM (inactive).
In the case of COc1cc2c(cc1OC)C(=O)CC(C)S2 (configuration not stated), the EC50 (Kallikrein-7) is reported as 8.28 µM (active) and the EC50 [5] is reported as > 7.73 µM (active).
With CC(C)(C)[S@@+]([O-])N1Cc2cc(C(=O)NCc3ccc4c(c3)OCO4)nc(-c3cccc(-c4cccnc4)c3)c2[C@H]1CCO the AC50 [6] was 1.67 µM (active).
In the case of CCCn1nc(C(=O)Nc2ccc3nc(N4CCOCC4)sc3c2)ccc1=O, the AC50 [7] is reported as 1.85 µM (active), the AC50 [8] is reported as 67.1 µM (active) and the AC50 [9] is reported as 1.04 µM (active). For the same compound, the AC50 [10] was > 70 µM (inactive), the AC50 [11] was 10.3 µM (active) and the AC50 [12] was > 70 µM (inactive).
For CCN1CCN(Cc2c(O)ccc3c(C)cc(=O)oc23)CC1, the AC50 [13] was 10 µM (active).
With O=C(c1cc2c(=O)n3ccccc3nc2s1)N1CCN(Cc2ccc3c(c2)OCO3)CC1 the EC50 [14] was 0.0693 µM (active), the EC50 [15] was 0.00977 µM (active) and the IC50 [16] was > 1.11 µM (active).
For CCC(=O)NCCn1c(C)cc2ccccc21, the EC50 [17] was > 20 µM (inactive) and the IC50 (Protein skinhead-1) was > 100 µM (inactive).
With CC(=O)Nc1cccc(OCCCNC(=O)c2ccc(C(C)(C)C)cc2)c1 the AC50 (Vero) was 35.3 µM (active).
With CCOc1ccc(-n2c(=S)sc3c(O)nc(SCC(=O)N4CCC(C)CC4)nc32)cc1 the IC50 (Aminopeptidase N) was 30 µM (active) and the AC50 [18] was 99 µM (active).

— ChEMBL document CHEMBL1201862, “PubChem BioAssay data set” (2004)
